# Experimental data reported in patent publication EP3322687B1, “2-BENZYL-INDANONE COMPOUNDS AS ANTICANCER AGENT AND A PROCESS FOR PREPARATION THEREOF” (Council of Scientific and Industrial Research, priority 2015, dated 2017).
# Where “and” joins values, the source holds several entries; their conditions need not be identical. Identical values can stand only once. Like-named read-outs stand apart in the source and are kept apart here.
# Columns and labels:
# tubulin protein = assay type: biochemical; conditions: read-out: Tubulin polymerisation inhibition IC50
# Protocol: The tubulin polymerization experiment was performed using 'assay kit'(Cytoskeleton USA) following manufacturer's protocol based on the procedure described by of Shelanski et al, (1973) and Lee et al. (1977). Briefly, tubulin protein (3mg/mL) in tubulin polymerization buffer (80 mM PIPES, pH 6.9, 2 mM MgCl2, 0.5 mM EGTA, 1 mM GTP and 15% glycerol) was placed in prewarmed 96-well microtiter plates at 37° C in the presence of test compounds with variable concentrations. All samples were mixed well and polymerization was monitored kinetically at 340 nm every min for 1h using a Spectramax plate reader. The IC50 value was determined from dose-dependent analysis and is defined as the concentration that inhibits the rate of polymerization by 50%. Podophyllotoxin was used as standard tubulin polymerisation inhibitor as positive control.
# Ehrlich Tumor (solid) = assay type: in vivo, Swiss mice
# Protocol: Ehrlich ascites carcinoma (EAC) cells were collected from the peritoneal cavity of the Swiss mice harbouring 8-10 days old ascitic tumor. 1x10^7 EAC cells were injected intramuscularly in right thigh of Swiss male mice selected for the experiment on day 0. The next day, animals were randomized and divided into different groups. Two treatment groups contained 7 animals each and one control group contained 10 animals. The first treatment group was given compound 2 (20 mg/kg i/p) from day 1-9. The second treatment group was treated with 5-fluorouracil (22 mg/kg, i.p) from day 1-9 and it served as positive control. The control group was similarly administered normal saline (0.2 ml, i.p.) from day 1-9. On day 9 & 13, tumor bearing thigh of each animal was shaved and longest and shortest diameters of the tumor were measured with the help of vernier caliper. Tumor weight of each animal was calculated using the following formula. Tumor weight (mg) = (Length(mm) × ([width(mm)])^2)/(2) [formula]
# The percent tumor growth inhibition was calculated on day 13 by comparing the average values of treated groups with that of control group. Tumor growth in saline treated control animals was taken to be 100%. Table 6. In-vivo anticancer activity of 2 against Ehrlich ascites carcinoma (solid)
# HCT-116 (Colon) = experiment: Sulforhodamine B cytotoxicity assay; assay type: cell-based; conditions: Homo sapiens, HCT-116; for IC50: SRB, 48 hours incubation, read-out: Human cancer cell lines IC50 HCT-116 (Colon)
# Protocol: (§1) The benzyl compounds were evaluated by Sulforhodamine B Assay as per reported method [Skehan etal., J. Natl. Cancer Inst.1990, 82, 1107]. The human cancer cell lines procured from National Cancer Institute, Frederick, U. S. A. were used in present study. Cells were grown in tissue culture flasks in complete growth medium (RPMI-1640 medium with 2 mM glutamine, pH 7.4 supplemented with 10% fetal bovine serum, 100 µg/ml streptomycin and 100 units/ml penicillin) in a carbon dioxide incubator (37°C, 5% CO2, 90% RH). The cells at subconfluent stage were harvested from the flask by treatment with trypsin (0.05% in PBS (pH 7.4) containing 0.02% EDTA). Cells with viability of more than 98%, as determined by trypan blue exclusion, were used for determination of cytotoxicity. The cell suspension required concentration of cells was prepared in complete growth medium. Stock solution of 2x10^-2 M of compounds were prepared in DMSO and further dilution was carried out complete growth medium containing 50µg/ml of gentamycin to obtained working test solution of required concentration. In vitro cytotoxicity against various human cancer cell lines was determined using 96-well cell culture plates. The 100µl of cell suspension was added to each well of the 96-well cell culture plates. The cells were allowed to grow in CO2 incubator (37°C, 5% CO2, 90% RH) for 24 hours. The test materials in complete growth medium (100 µl) were added after 24 hours incubation to the wells containing cell suspension. The plates were further incubated for 48 hours (37°C in an atmosphere of 5% CO2 and 90% relative humidity) in a carbon dioxide incubator after addition of test material and then the cell growth was stopped by gently layering trichloroacetic acid (50% TCA, 50 µl) on top of the medium in all the wells. The plates were incubated at 4°C for one hour to fix the cells attached to the bottom of the wells. The liquid of all the wells was gently pipetted out and discarded. The plates were washed five times with distilled water to remove TCA, growth medium low molecular weight metabolites, serum proteins etc. and air - dried. Cell growth was measured by staining with sulforhodamine B dye. The adsorbed dye was dissolved in Tris-HCl Buffer (100 µl/well, 0.01M, pH 10.4) and plates were gently stirred for 10 minutes on a mechanical stirrer. The optical density (OD) was recorded on ELISA reader at 540nm. Paclitaxel (Taxol), and 5-Fluorouracil were used as positive controls (Standard drugs).
# A549 (Lung) = experiment: Sulforhodamine B cytotoxicity assay; assay type: cell-based; conditions: Homo sapiens, A549; for IC50: SRB, 48 hours incubation, read-out: Human cancer cell lines IC50 A549 (Lung)
# Protocol: as §1
# THP-1 (Leukemia) = experiment: Sulforhodamine B cytotoxicity assay; assay type: cell-based; conditions: Homo sapiens, THP-1; for IC50: SRB, 48 hours incubation, read-out: Human cancer cell lines IC50 THP-1 (Leukemia)
# Protocol: as §1
# MCF-7 (Breast cancer) = experiment: Sulforhodamine B cytotoxicity assay; assay type: cell-based; conditions: Homo sapiens, MCF7; for IC50: SRB, 48 hours incubation, read-out: Human cancer cell lines IC50 MCF-7 (Breast cancer)
# Protocol: as §1
# [1] = tested on: Ehrlich Ascites Carcinoma (EAC); assay type: in vivo, Swiss mice; conditions: for % Tumor cell growth: 20 mg/kg i/p day 1-9, Day 12, control = 100; for Mortality: 20 mg/kg i/p day 1-9, Day 12, dead/total animals
# Protocol: Ehrlich ascites carcinoma (EAC) cells were collected from the peritoneal cavity of the Swiss mice harbouring 8-10 days old ascitic tumor. 1x10^7 EAC cells were injected intraperitoneally in Swiss mice selected for the experiment on day 0. The next day, animals were randomized and divided into different groups. The treatment groups contained 7 animals each and control group contained 10 animals. The treatment group was treated with 20 mg/kg of Compound 2 intra-peritoneally from day 1-9. One more of the treatment group received 5-fluorouracil (20 mg/kg, i.p) and it served as positive control. The tumor bearing control group was similarly administered normal saline (0.2 ml, i.p.). On day 12, animals were sacrificed and ascitic fluid was collected from peritoneal cavity of each mouse for the evaluation of tumor growth. Percent tumor growth inhibition was calculated based on the total number of tumor cells present in the peritoneal cavity as on day 12 of the experiment using the following formula. Percent tumor growth inhibition = (Av.no.of cells in control group−Av.no.of cells in treated group)/(Av.no.of cells in control group) × 100 [formula]
# T-47D (Breast cancer) = experiment: Sulforhodamine B cytotoxicity assay; assay type: cell-based; conditions: Homo sapiens, T47D; for IC50: SRB, 48 hours incubation, read-out: Human cancer cell lines IC50 T-47D (Breast cancer)
# Protocol: as §1
# Hela (Cervix) = experiment: Sulforhodamine B cytotoxicity assay; assay type: cell-based; conditions: Homo sapiens, Concentration 20 µM
# Protocol: as §1
smiles,measurement,setting,value
"COc1cc(C2C(=Cc3ccc4c(c3)OCO4)C(=O)c3cc(OC)c(OC)c(OC)c32)cc(OC)c1OC (centres unmarked) [Compound 12, 2-benzo[1,3]dioxo-5-ylmethylene-4,5,6-trimethoxy-3-(3,4,5-trimethoxyphenyl)-indan-1-one]",Day 13 Av. Tumor weights,"Ehrlich Tumor (solid); 20 mg/kg i/p day 1-9, Day 13",1319.64 ± 56.46 mg
same,%Tumor Growth Inhibition,"Ehrlich Tumor (solid); 20 mg/kg i/p day 1-9, day 13",35.9% and 35.91%
same,Mortality,"Ehrlich Tumor (solid); 20 mg/kg i/p day 1-9, dead/total animals",0/7
same,Day 13 Av. Body weights,"Ehrlich Tumor (solid); 20 mg/kg i/p day 1-9, male Swiss mice, Day 13",23.71 g
same,Av. Body weights (g) of animals on days 1,"Ehrlich Tumor (solid); 20 mg/kg i/p day 1-9, male Swiss mice, day 1",21.42 g
same,IC50,"tubulin protein; tubulin 3mg/mL, 37° C, 340 nm, 1h",0.63 µM
same,IC50,HCT-116 (Colon),0.1 µM
same,IC50,A549 (Lung),11 µM
same,IC50,THP-1 (Leukemia),4.9 µM
same,IC50,MCF-7 (Breast cancer),0.01 µM
same,%Tumor Growth Inhibition,"[1]; 20 mg/kg i/p day 1-9, Day 12",45.5% and 45.48%
same,"Av, Volume of ascitic fluid","[1]; 20 mg/kg i/p day 1-9, Day 12",6.11 mL
same,Av. Weight of ascitic fluid,"[1]; 20 mg/kg i/p day 1-9, Day 12",5.88 g
same,% Tumor cell growth,[1],54.52%
same,Mortality,[1],0/7
same,Body weight Day 1,"[1]; 20 mg/kg i/p day 1-9, EAC-bearing female Swiss mice, Day 1",21.42 g
same,Body weight Day 5,"[1]; 20 mg/kg i/p day 1-9, EAC-bearing female Swiss mice, Day 5",22.85 g
same,Body weight Day 9,"[1]; 20 mg/kg i/p day 1-9, EAC-bearing female Swiss mice, Day 9",22.42 g
same,Body weight Day 12,"[1]; 20 mg/kg i/p day 1-9, EAC-bearing female Swiss mice, Day 12",23.16 g
"COc1cc(C2c3c(cc(OC)c(OC)c3OC)C(=O)C2Cc2ccc(F)cc2)cc(OC)c1OC (centres unmarked) [Compound 4, 2-(4""-fluorobenzyl)-3-(3',4',5'-trimethoxyphenyl)-4,5,6-trimethoxy-indan-1-one]",IC50,T-47D (Breast cancer),36 µM
same,IC50,HCT-116 (Colon),22 µM
same,IC50,A549 (Lung),24 µM
same,IC50,THP-1 (Leukemia),55 µM
same,IC50,MCF-7 (Breast cancer),45 µM
O=c1[nH]cc(F)c(=O)[nH]1 [5-Fluorouracil],Day 13 Av. Tumor weights,"Ehrlich Tumor (solid); 22 mg /Kg i/p day 1-9, Day 13",842.85 ± 129.92 mg
same,%Tumor Growth Inhibition,"Ehrlich Tumor (solid); 22 mg /Kg i/p day 1-9, day 13",59.07%
same,Mortality,"Ehrlich Tumor (solid); 22 mg /Kg i/p day 1-9, dead/total animals",0/7
same,inhibition at 20 µM,Hela (Cervix),70%
same,inhibition at 20 µM,T-47D (Breast cancer); Concentration 20 µM,60%
same,inhibition at 20 µM,HCT-116 (Colon); Concentration 20 µM,88%
same,inhibition at 20 µM,A549 (Lung); Concentration 20 µM,54%
same,inhibition at 20 µM,THP-1 (Leukemia); Concentration 20 µM,90%
same,inhibition at 20 µM,MCF-7 (Breast cancer); Concentration 20 µM,50%
same,%Tumor Growth Inhibition,"[1]; 20 mg/kg i/p day 1-9, Day 12",95.4%
same,"Av, Volume of ascitic fluid","[1]; 20 mg/kg i/p day 1-9, Day 12",0.7 mL
same,Av. No. of tumor cells,"[1]; 20 mg/kg i/p day 1-9, Day 12",6.33 x 10^7
same,Av. Weight of ascitic fluid,"[1]; 20 mg/kg i/p day 1-9, Day 12",0.46 g
same,% Tumor cell growth,[1],4.6%
same,Mortality,[1],0/7
"COc1ccc(CC2C(=O)c3cc(OC)c(OC)c(OC)c3C2c2cc(OC)c(OC)c(OC)c2)c(OC)c1 (centres unmarked) [Compound 5, 2-(2"",4""-dimethoxybenzyl)-3-(3',4',5'-trimethoxyphenyl)-4,5,6-trimethoxy-indan-1-one]",IC50,T-47D (Breast cancer),12 µM
same,IC50,HCT-116 (Colon),4 µM
same,IC50,A549 (Lung),1 µM
same,IC50,THP-1 (Leukemia),1 µM
same,IC50,MCF-7 (Breast cancer),12 µM
"CC(=O)O[C@H]1C(=O)[C@@]2(C)[C@H]([C@H](OC(=O)c3ccccc3)[C@]3(O)C[C@H](OC(=O)[C@H](O)[C@@H](NC(=O)c4ccccc4)c4ccccc4)C(C)=C1C3(C)C)[C@]1(OC(C)=O)CO[C@@H]1C[C@@H]2O [Paclitaxel, reference compound]",inhibition at 1 µM,T-47D (Breast cancer); Concentration 1 µM,78%
same,inhibition at 1 µM,HCT-116 (Colon); Concentration 1 µM,45%
same,inhibition at 1 µM,A549 (Lung); Concentration 1 µM,88%
same,inhibition at 1 µM,THP-1 (Leukemia); Concentration 1 µM,60%
same,inhibition at 1 µM,MCF-7 (Breast cancer); Concentration 1 µM,77%
